Values quoted from earlier work as cited in patent US20240180903A1, “INJECTABLE PHARMACEUTICAL COMPOSITION, PREPARATION METHOD THEREFOR AND USE THEREOF” (ZHEJIANG CUIZE PHARMACEUTICAL TECHNOLOGY CO., LTD., priority 2022, published 2024).

Legend:
HIV RNA in plasma = conditions: oral 5 mg/d or 30 mg/d, 10 d after a single dose
HIV = conditions: read-out: IC50 against HIV

SMILES: C[C@H]1CO[C@@H]2Cn3cc(C(=O)NCc4ccc(F)cc4F)c(=O)c(O)c3C(=O)N12 [Cabotegravir]
- HIV RNA in plasma (HIV RNA in plasma): 2.2-2.3 copies/mL
- IC50 (HIV): 220 pM
